Measurements as given in the supplement of paper PMC10290057.
Counter-ions that a name gives are not always drawn.

system: HCT116; experiment: efficacy (fitted maximal change in viability relative to DMSO control); higher = less cytotoxic (negative = loss of viability); settings: 48 h
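Note: Luminescence-based viability readout, five doses per compound, normalized against on-plate DMSO and empty-well controls, followed by dose-response curve fitting for every drug.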

Point of comparison: `CN1C(=O)/C(=C(NC2=CC=C(I)C=C2F)\C3=C1\N=C/N(C[C@@H](O)CO)C3=O)F` [TAK-733], efficacy -73.1%. Against it:
- CC[C@H](/C=C/[C@@H](C)[C@H]1CC[C@H]2[C@@H]3CC=C4C[C@@H](O)CC[C@]4(C)[C@H]3CC[C@]12C)C(C)C [Stigmasterol] — higher, 11.5%
- CN(N=O)C(=O)N[C@@H]1[C@@H](O)[C@H](O)[C@@H](CO)O[C@@H]1O [Streptozocin] — higher, -15.5%
- N#Cc1c(N(CC(=O)[O-])CC(=O)[O-])sc(C(=O)[O-])c1CC(=O)[O-] [Strontium Ranelate] — higher, -15.5%
- Cc1nnc(N[S+](=O)([O-])c2ccc(N)cc2)s1 [Sulfamethizole] — higher, -10.7%
- O=C(O)c1cc(/N=N/c2ccc(S(=O)(=O)Nc3ccccn3)cc2)ccc1O [Sulfasalazine] — higher, 8.3%
- CC1=C(CC(=O)O)c2cc(F)ccc2/C1=C\c1ccc([S+](C)[O-])cc1 (stereo not given) [Sulindac] — higher, -20.4%
- CN[C@@H]1Cc2cccc3[nH]c(=O)n(c23)C1 [Sumanirole maleate] — higher, -12.4%
- CCOCC(O)COc1ccc(NC(=O)CC[S+](C)C)cc1 (stereo not given) [Suplatast tosylate] — higher, -20.9%
- Cc1ccc(C(=O)Nc2ccc([S+](=O)([O-])O)c3cc([S+](=O)([O-])O)cc([S+](=O)([O-])O)c23)cc1NC(=O)c1cccc(NC(=O)Nc2cccc(C(=O)Nc3cc(C(=O)Nc4ccc([S+](=O)([O-])O)c5cc([S+](=O)([O-])O)cc([S+](=O)([O-])O)c45)ccc3C)c2)c1 [Suramin sodium] — higher, -20.9%
- CNCC(O)c1ccc(O)cc1 (stereo not given) [Synephrine] — higher, -16.7%
- CCOC(=O)C1=CCCCC1[S+](=O)([O-])Nc1ccc(F)cc1Cl (stereo not given) [TAK-242] — higher, -34.7%
- Cn1cc(-c2nc(N[C@@H]3CCCC[C@@H]3N)c(F)c3c2C(=O)NC3)cn1 [TAK-659] — higher, -31.1%
- C[N]1C2=C(SC(=C2)[S+](C)[O-])C\3=C1C(=O)N(CC4=CC(=CC=C4)N)\N=C3 (stereo not given) [TEPP-46] — higher, 21.5%
- C[C@@H]1C\C2=C(CCC(=O)C2)/[C@H]3CC[C@@]4(C)[C@@H](CC[C@@]4(O)C#C)[C@H]13 [TIBOLONE] — higher, -7.38%
- O=C(COCC(=O)N1CCN(C(c2ccccc2)c2ccccc2)CC1)Nc1ccc(Cl)cc1C(=O)O [TM-5275] — higher, 6.23%
- CC(C)(CNC(=O)c1cccc(-c2noc(C(F)(F)F)n2)c1)c1coc(-c2ccccc2)n1 [TMP-195] — higher, -21.4%
- COC1=CC=C(C=C1)C(=O)C2CCN(CC2)CC(=O)N(CC3CC3)C\C4=N\C5=C(\COCC5)C(=O)N4 [TNKS-656] — higher, -13.6%
- Nc1c2c(nc3ccccc13)CCCC2 [Tacrine hydrochloride] — higher, -50.9%
- CN(C(=O)c1ccc(F)cc1C(F)(F)F)C1CCN(c2nnc(-c3ccnn3C)c3ccccc23)CC1 [Taladegib] — higher, -25.6%
- C[C@@H]1CN(Cc2ccc(F)cc2)[C@@H](C)CN1C(=O)c1cc2c(C(=O)C(=O)N(C)C)cn(C)c2cc1Cl [Talmapimod] — higher, -32.8%
- Cc1coc2c1C(=O)C(=O)c1c-2ccc2c1CCCC2(C)C [Tanshinone IIA] — higher, -14.6%
- COc1cc2c(cc1OC)CN(CCc1ccc(NC(=O)c3cc(OC)c(OC)cc3NC(=O)c3cnc4ccccc4c3)cc1)CC2 [Tariquidar] — higher, -11.3%
- COC1=CC=CC2=C1C(=C(/C(=O)N(C)C3=CC=C(C=C3)C(F)(F)F)C(=O)N2C)/O [Tasquinimod] — higher, -6.06%
- CCOC(=O)c1ccc(C#Cc2ccc3c(c2)C(C)(C)CCS3)nc1 [Tazarotene] — higher, -38.2%
- CCN(C1CCOCC1)C2=C(C)C(=CC(=C2)C3=CC=C(CN4CCOCC4)C=C3)C(=O)NC\C5=C(C)\C=C(C)/NC5=O [Tazemetostat] — higher, -59%
- F\C1=C\N(C2CCCO2)C(=O)NC1=O (stereo not given) [Tegafur] — higher, -8.62%
- CC(=O)N[C@H]1[C@H](O[C@@H]2c3ccc(c(Cl)c3)Oc3cc4cc(c3O[C@@H]3O[C@H](CO)[C@@H](O)[C@H](O)[C@H]3NC(=O)CCCCCCCC(C)C)Oc3ccc(cc3Cl)C[C@H]3NC(=O)[C@H](N)c5ccc(O)c(c5)Oc5cc(O)cc(c5)[C@H](NC3=O)C(=O)N[C@H]4C(=O)N[C@H]3C(=O)N[C@@H]2C(=O)N[C@@H](C(=O)O)c2cc(O)cc(O[C@H]4O[C@H](CO)[C@@H](O)[C@H](O)[C@@H]4O)c2-c2cc3ccc2O)O[C@H](CO)[C@@H](O)[C@@H]1O [Teicoplanin] — higher, -14.5%
- CCC[C@H](NC(=O)[C@@H]1[C@H]2CCC[C@H]2CN1C(=O)[C@@H](NC(=O)[C@@H](NC(=O)c1cnccn1)C1CCCCC1)C(C)(C)C)C(=O)C(=O)NC1CC1 [Telaprevir (VX-950)] — higher, -39.3%
- CC[C@H]1OC(=O)[C@H](C)C(=O)[C@H](C)[C@@H](O[C@H]2O[C@H](C)C[C@H](N(C)C)[C@H]2O)[C@](C)(OC)C[C@@H](C)C(=O)[C@H](C)[C@H]2N(CCCCn3cnc(-c4cccnc4)c3)C(=O)O[C@]12C [Telithromycin] — higher, -11.9%
- CCCc1nc2c(C)cc(-c3nc4ccccc4n3C)cc2n1Cc1ccc(-c2ccccc2C(=O)O)cc1 [Telmisartan] — higher, -20.9%
- CCOC(=O)[C@@H](N)Cc1ccc(-c2cc(O[C@H](c3ccc(Cl)cc3-n3ccc(C)n3)C(F)(F)F)nc(N)n2)cc1 [Telotristat Etiprate (LX 1606 Hippurate)] — lower, -95.9%
- CCOC(=O)[C@H](CCc1ccccc1)N[C@H]1CS[C@H](c2cccs2)CN(CC(=O)O)C1=O.Cl [Temocapril hydrochloride] — higher, 10.5%
- CO[C@H]1C[C@@H]2CC[C@@H](C)[C@@](O)(O2)C(=O)C(=O)N2CCCC[C@H]2C(=O)O[C@H]([C@H](C)C[C@@H]2CC[C@@H](OC(=O)C(C)(CO)CO)[C@H](OC)C2)CC(=O)[C@H](C)/C=C(\C)[C@@H](O)[C@@H](OC)C(=O)[C@H](C)C[C@H](C)/C=C/C=C/C=C/1C [Temsirolimus] — higher, -13.9%
- CC[C@H](NC1=C2[NH]C=NC2=NC=N1)/C3=C(/C(=O)C4=CC=CC=C4O3)C5=CC=CC(=C5)F [Tenalisib] — higher, -39.1%
- COc1ccc2[nH]c([S+]([O-])Cc3ncc(C)c(OC)c3C)nc2n1 (stereo not given) [Tenatoprazole] — higher, -10.8%
- CN1\C(=C(\O)C2=C(C=CS2)[S+]1([O-])=O)C(=O)NC3=CC=CC=N3 [Tenoxicam] — higher, -10.7%
- C/C(O)=C(\C#N)C(=O)Nc1ccc(C(F)(F)F)cc1 [Teriflunomide] — higher, -52.2%
- CCN(CC)CCOc1ccc(Cc2ccccc2)cc1 [Tesmilifene hydrochloride] — higher, -27%
- C[C@]12CC[C@H]3[C@@H](CCC/4=C/C(=O)CC[C@]34C)[C@@H]1CC[C@@H]2OC(=O)CCC5CCCC5 [Testosterone cypionate] — higher, -12%
- COc1cc2c(cc1OC)C1CC(=O)C(CC(C)C)CN1CC2 (stereo not given) [Tetrabenazine] — higher, -45.5%
- CN(C)[C@H]\1[C@@H]2C[C@H]3C(=C(O)\[C@]2(O)C(=O)\C(=C1O)C(N)=O)/C(=O)C4=C(O)C=CC=C4[C@@]3(C)O [Tetracycline hydrochloride] — higher, 8.73%
- O=C1NC(O)CCN1[C@@H]1O[C@H](CO)[C@@H](O)[C@H]1O (stereo not given in full) [Tetrahydrouridine] — higher, -11.8%
- O=C1CCC(N2C(=O)c3ccccc3C2=O)C(=O)N1 (stereo not given) [Thalidomide] — higher, -16.7%
- Cn1c(=O)c2[nH]cnc2n(C)c1=O [Theophyllamine] — higher, -11.6%
